Reference: US9833497B2, “Human originated EGF domain proteins and use of the same” (CHENGDU SOURCEBIO LIMITED-LIABILITY COMPANY, priority 2013, dated 2017)

Columns and labels:
Assay type in all cases: cell-based
Enterobacter cloacae = experiment: MIC against Gram-negative bacteria: Enterobacter cloacae; details: for MIC: E. cloacae
Procedure, shortened: (§1)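 Inocula prepared by growing LB cultures at 37° C to 0.5 McFarland, centrifuging at 4000×g, and resuspending in fresh medium. Final density 5×10^5 CFU/mL per well with two-fold dilutions of purified EGF domain protein; shaking incubation at 37° C.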

Moraxella catarrhalis = experiment: MIC against Gram-negative bacteria: Moraxella catarrhalis; details: for MIC: M. catarrhalis
Procedure, shortened: as §1

Aeromonas hydrophila = experiment: MIC against Gram-negative bacteria: Aeromonas hydrophila; details: for MIC: A. hydrophila
Procedure, shortened: as §1

Pseudomonas aeruginosa = experiment: MIC against Gram-negative bacteria: Pseudomonas aeruginosa; details: for MIC: P. aeruginosa
Procedure, shortened: as §1

E. coli DH5α = experiment: Antibacterial activity: MIC and growth curve against E. coli DH5α in 96-well plate; details: minimal inhibitory concentration against E. coli DH5α; 96-well plate, 5×10^5 CFU/mL, 37° C., judged after 8 h
Procedure, shortened: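 MIC taken as lowest protein level with no bacterial growth, tracked by A600 every 30 min during 37 °C, 175 rpm culture. Two-fold protein series 50-12.5 μg/mL final, triplicate wells, against 5×10^5 CFU/mL of LB-washed mid-log cells.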

Klebsiella pneumonia = experiment: MIC against Gram-negative bacteria: Klebsiella pneumonia; details: for MIC: K. pneumonia
Procedure, shortened: as §1

Serratia marcescens = experiment: MIC against Gram-negative bacteria: Serratia marcescens; details: for MIC: S. marcescens
Procedure, shortened: as §1

E. coli BL21 = experiment: MIC against Gram-negative bacteria: E. coli BL21
Procedure, shortened: as §1

Citrobacter diversus = experiment: MIC against Gram-negative bacteria: Citrobacter diversus; details: for MIC: C. diversus
Procedure, shortened: as §1

Proteus mirabilis = experiment: MIC against Gram-negative bacteria: Proteus mirabilis; details: for MIC: P. mirabilis
Procedure, shortened: as §1

Proteus vulgaris = experiment: MIC against Gram-negative bacteria: Proteus vulgaris; details: for MIC: P. vulgaris
Procedure, shortened: as §1

[1] = 10 h cultivation at 37° C., 5×10^5 CFU/mL
[2] = E. coli BL21, 10 h cultivation at 37° C., 5×10^5 CFU/mL
[3] = 96-well plate, 5×10^5 CFU/mL, 37° C., 10 h

Substance: PRT1013 (LEDPCPPSFCSKRGRCHIQASGRPQCSCMPGWTGEQCQ; listed as Homo sapiens)
- MIC (Enterobacter cloacae; 10 h cultivation at 37° C.): 12.5 µg/mL
- MIC (Moraxella catarrhalis; 10 h cultivation at 37° C.): 25 µg/mL
- MIC (Aeromonas hydrophila; 10 h cultivation at 37° C.): 12.5 µg/mL
- MIC (Pseudomonas aeruginosa; 10 h cultivation at 37° C.): 12.5 µg/mL
- MIC (E. coli DH5α): 12.5 µg/mL
- MIC (Klebsiella pneumonia; 10 h cultivation at 37° C.): 25 µg/mL
- MIC (Serratia marcescens; 10 h cultivation at 37° C.): 50 µg/mL
- MIC (E. coli BL21; E. coli BL21, 10 h cultivation at 37° C.): 12.5 µg/mL
- MIC (Citrobacter diversus; 10 h cultivation at 37° C.): 12.5 µg/mL
- MIC (Proteus mirabilis; 10 h cultivation at 37° C.): 12.5 µg/mL
- MIC (Proteus vulgaris; 10 h cultivation at 37° C.): 25 µg/mL

Substance: PRT1433 (PPRRCDSNPCFRGVQCTDSRDGFQCGPCPEGYTGNGITCI; listed as Homo sapiens)
- MIC against E. cloacae (Enterobacter cloacae; Enterobacter cloacae, 5×10^5 CFU/mL, 10 h cultivation at 37° C.): 12.5 µg/mL
- MIC against M. catarrhalis (Moraxella catarrhalis; Moraxella catarrhalis, 5×10^5 CFU/mL, 10 h cultivation at 37° C.): 12.5 µg/mL
- MIC against A. hydrophila (Aeromonas hydrophila; Aeromonas hydrophila, 5×10^5 CFU/mL, 10 h cultivation at 37° C.): 25 µg/mL
- MIC against P. aeruginosa (Pseudomonas aeruginosa; Pseudomonas aeruginosa, 5×10^5 CFU/mL, 10 h cultivation at 37° C.): 12.5 µg/mL
- MIC (E. coli DH5α): 12.5 µg/mL
- MIC against K. pneumonia (Klebsiella pneumonia; Klebsiella pneumonia, 5×10^5 CFU/mL, 10 h cultivation at 37° C.): 12.5 µg/mL
- MIC against S. marcescens (Serratia marcescens; Serratia marcescens, 5×10^5 CFU/mL, 10 h cultivation at 37° C.): 12.5 µg/mL
- MIC against E. coli BL21 (E. coli BL21; E. coli BL21, 5×10^5 CFU/mL, 10 h cultivation at 37° C.): 12.5 µg/mL
- MIC against C. diversus (Citrobacter diversus; Citrobacter diversus, 5×10^5 CFU/mL, 10 h cultivation at 37° C.): 12.5 µg/mL
- MIC against P. mirabilis (Proteus mirabilis; Proteus mirabilis, 5×10^5 CFU/mL, 10 h cultivation at 37° C.): 25 µg/mL
- MIC against P. vulgaris (Proteus vulgaris; Proteus vulgaris, 5×10^5 CFU/mL, 10 h cultivation at 37° C.): 12.5 µg/mL

Substance: PRT419 (DIDECALPTGGHICSYRCINIPGSFQCSCPSSGYRLAPNGRNCQ; listed as Homo sapiens)
- MIC (Enterobacter cloacae; [1]): 25 µg/mL
- MIC (Moraxella catarrhalis; [1]): 50 µg/mL
- MIC (Aeromonas hydrophila; [1]): 12.5 µg/mL
- MIC (Pseudomonas aeruginosa; [1]): 25 µg/mL
- MIC (E. coli DH5α): 25 µg/mL
- MIC (Klebsiella pneumonia; [1]): 50 µg/mL
- MIC (Serratia marcescens; [1]): 25 µg/mL
- MIC (E. coli BL21; [2]): 12.5 µg/mL
- MIC (Citrobacter diversus; [1]): 25 µg/mL
- MIC (Proteus mirabilis; [1]): 25 µg/mL
- MIC (Proteus vulgaris; [1]): 12.5 µg/mL

Substance: PRT420 (DIDECVTGIHNCSINETCFNIQGGFRCLAFECPENYRRSAATLQQEKTDTVRCI; listed as Homo sapiens)
- MIC (Enterobacter cloacae; [1]): 50 µg/mL
- MIC (Moraxella catarrhalis; [1]): 12.5 µg/mL
- MIC (Aeromonas hydrophila; [1]): 12.5 µg/mL
- MIC (Pseudomonas aeruginosa; [1]): 12.5 µg/mL
- MIC (E. coli DH5α): 50 µg/mL
- MIC (Klebsiella pneumonia; [1]): 25 µg/mL
- MIC (Serratia marcescens; [1]): 50 µg/mL
- MIC (E. coli BL21; [2]): 25 µg/mL
- MIC (Citrobacter diversus; [1]): 50 µg/mL
- MIC (Proteus mirabilis; [1]): 50 µg/mL
- MIC (Proteus vulgaris; [1]): 100 µg/mL

Substance: PRT14 (PPKPCDSQPCFHGGTCQDWALGGGFTCSCPAGRGGAVCE; listed as Homo sapiens)
- MIC (μg/mL) E. cloacae (Enterobacter cloacae; Enterobacter cloacae, 96-well plate, 5×10^5 CFU/mL, 37° C., 10 h): 25 µg/mL
- MIC (μg/mL) M. catarrhalis (Moraxella catarrhalis; Moraxella catarrhalis, 96-well plate, 5×10^5 CFU/mL, 37° C., 10 h): 12.5 µg/mL
- MIC (μg/mL) A. hydrophila (Aeromonas hydrophila; Aeromonas hydrophila, 96-well plate, 5×10^5 CFU/mL, 37° C., 10 h): 50 µg/mL
- MIC (μg/mL) P. aeruginosa (Pseudomonas aeruginosa; Pseudomonas aeruginosa, 96-well plate, 5×10^5 CFU/mL, 37° C., 10 h): 25 µg/mL
- MIC (E. coli DH5α): 25 µg/mL
- MIC (μg/mL) K. pneumonia (Klebsiella pneumonia; Klebsiella pneumonia, 96-well plate, 5×10^5 CFU/mL, 37° C., 10 h): 12.5 µg/mL
- MIC (μg/mL) S. marcescens (Serratia marcescens; Serratia marcescens, 96-well plate, 5×10^5 CFU/mL, 37° C., 10 h): 12.5 µg/mL
- MIC (μg/mL) E. coli BL21 (E. coli BL21; E. coli BL21, 96-well plate, 5×10^5 CFU/mL, 37° C., 10 h): 50 µg/mL
- MIC (μg/mL) C. diversus (Citrobacter diversus; Citrobacter diversus, 96-well plate, 5×10^5 CFU/mL, 37° C., 10 h): 25 µg/mL
- MIC (μg/mL) P. mirabilis (Proteus mirabilis; Proteus mirabilis, 96-well plate, 5×10^5 CFU/mL, 37° C., 10 h): 25 µg/mL
- MIC (μg/mL) P. vulgaris (Proteus vulgaris; Proteus vulgaris, 96-well plate, 5×10^5 CFU/mL, 37° C., 10 h): 50 µg/mL

Substance: PRT562 (CQCHNNIDTTDPEACDKETGRCLKCLYHTEGEHCQFCRFGYYGDALQQDCRK; listed as Homo sapiens)
- MIC against E. cloacae (Enterobacter cloacae; [3]): 50 µg/mL
- MIC against M. catarrhalis (Moraxella catarrhalis; [3]): 25 µg/mL
- MIC against A. hydrophila (Aeromonas hydrophila; [3]): 25 µg/mL
- MIC against P. aeruginosa (Pseudomonas aeruginosa; [3]): 50 µg/mL
- MIC (E. coli DH5α): 50 µg/mL
- MIC against K. pneumonia (Klebsiella pneumonia; [3]): 25 µg/mL
- MIC against S. marcescens (Serratia marcescens; [3]): 50 µg/mL
- MIC against E. coli BL21 (E. coli BL21; [3]): 25 µg/mL
- MIC against C. diversus (Citrobacter diversus; [3]): 50 µg/mL
- MIC against P. mirabilis (Proteus mirabilis; [3]): 12.5 µg/mL
- MIC against P. vulgaris (Proteus vulgaris; [3]): 25 µg/mL
